US20140243239A1, “MULTIPLEXED KINASE INHIBITOR BEADS AND USES THEREOF” (University of North Carolina at Chapel Hill, priority 2011, published 2014)

Assays:
RTKs [1] = assay: RTK tyrosine phosphorylation/expression in SUM159 cells (RTK arrays, western blot); assay type: cell-based, human; details: 5 μM AZD6244; 50 nM BEZ235 (FIG. 3H)
Experimental: Western blotting and RTK arrays: Western blotting and RTK array analysis were performed as previously described (Amin et al., 2010). Amin et al. 2010 Sci Transl Med 2, 16ra17. Detailed methods and antibodies are provided in Supplemental Experimental Procedures.
(§1) Western blotting: Proteins from cell lysates were separated by SDS-PAGE chromatography, transferred to nitrocellulose membranes, and probed with the indicated primary antibodies. Antibodies recognizing pAKT (S473), pAKT (T308), AURA, pAXL (Y702), AXL, c-Myc, DDR1, EGFR, pERK1/2 (T202/Y204), pHER3 (Y1197), MAX, pMEK1/2 (S217/S221), MEK1/2, MKP3, pP70S6K (T389), pPDGFRβ (Y751), pPDGFRβ (Y1009), pPDGFR (Y857), PDGFRβ, pRAF (S338), pRSK1 (T359/S363), pVEGFR2 (Y1175), VEGFR2 were obtained from Cell Signaling Technology. Antibodies for Cyclin A2, Cyclin B1, Cyclin D1, ERK2, RAF, and pRAF (S259) were obtained from Santa Cruz Biotechnology. The antibody recognizing Bim was obtained from Chemicon. The antibody recognizing p-c-Myc (S62) was obtained from Abeam. Secondary HRP-anti-rabbit and HRP-anti-goat secondary antibodies were from Jackson Immunoresearch Laboratories and Santa Cruz Biotechnology, respectively. Western blots were visualized by incubation with SuperSignal West Pico Chemiluminescent Substrate (Thermo Scientific).
RTK arrays: Cells were harvested in RTK array lysis buffer containing 20 mM Tris-HCl (pH 8.0), 1% NP-40, 10% glycerol, 137 mM NaCl, 2 mM EDTA, 1×EDTA-free protease inhibitor cocktail (Roche), and 1% each of phosphatase inhibitor cocktails 1 and 2 (Sigma). After incubating on ice for 20 minutes, cell debris was pelleted at 4° C. Lysates (500 μg protein) were applied to R&D Systems Proteome Profiler™ Human Phospho-RTK antibody arrays. Washing and secondary antibody steps were performed according to the manufacturer“s instructions. RTK arrays were visualized by SuperSignal West Pico Chemiluminescent Substrate (Thermo Scientific).

MDA-MB-231 cells = assay: MDA-MB-231 cell growth (Cell-Titer Glo); assay type: cell-based, human; details: 5 μM MEK inhibitor (FIG. 9A)
Experimental: Cell Culture: MDA-MB-231 cells were grown in DMEM/F12 supplemented with 10% FBS. SUM-159 cells were grown in DMEM/F12 supplemented with 10% FBS 1 μg/mL hydrocortisone, and 5 μg/mL insulin. SUM159-R cells were continually grown in the presence of 5 μM AZD6244. For SILAC labeling, cells were grown for five doublings in arginine- and lysine-depleted media (as above) supplemented with either unlabeled L-arginine (42 mg/L) and L-lysine (71 mg/L) or equimolar amounts of heavy isotope labeled [13C6,15N4]arginine (Arg10) and [13C6]lysine (Lys6) (Cambridge Isotope Laboratories). Proliferation was quantified using Cell-Titer Glo Luminescent Cell Viability Assay (Promega). Fresh media containing DMSO or kinase inhibitors was added daily and experiments were performed in triplicate.

RTKs [2] = assay: RTK expression in C3Tag tumors (western blot); assay type: in vivo, mouse
Experimental: Treatment began the same day. Tumor size was assessed twice weekly by caliper measurements of tumor areas ((width)2×length))/2 for 21 days. […] Drugs were incorporated into the diet of mice to achieve a daily dose of AZD6244 20 mg/kg and sorafenib 30 mg/kg. […] Tumors at harvest were cut in half and either snap-frozen in liquid nitrogen and stored at −80° C. or placed in neutral buffered 10% formalin solution.
as §1

Cn1cnc2c(F)c(Nc3ccc(Br)cc3Cl)c(C(=O)NOCCO)cc21 [AZD6244] was tested, and the RTK phosphorylation profile (RTKs [1]) was “induced PDGFRβ, VEGFR2 and AXL phosphorylation”, the “growth of MDA-MB-231 cells” value (MDA-MB-231 cells) was “inhibited growth” and the “expression of RTKs in C3Tag tumors versus untreated” value (RTKs [2]; AZD6244 20 mg/kg 28 days, sorafenib 30 mg/kg 26 days) was “elevated”. For the same molecule, the “PDGFRβ expression in C3Tag tumors” value (RTKs [2]; AZD6244 20 mg/kg, 2 and 7 days) was “strongly induced”.
